Data from patent US6596721B2, “Stable crystalline (6R) -tetrahydrofolic acid” (Eprova AG, priority 1994, dated 2003).

Test: Stability on storage under severe conditions at 60° C. in the air (remaining tetrahydrofolic acid content by HPLC, colour)
Format: physicochemical
Settings: for Colour / discoloration: after a prolonged test period at 60° C. in the air
Method: The tetrahydrofolic acid contents and the isomer contents given in the following examples were in each case determined by HPLC. All tetrahydrofolic acid contents are based on the anhydrous substance.
To determine the stability of crystalline (6S)- and (6R)-tetrahydrofolic acid, the substances together with comparison samples were stored under severe conditions at 60° C. in the air. The remaining tetrahydrofolic acid content was measured at periodic intervals and is shown in comparison with the initial value.
In contrast, the other products which are included for comparison reasons discolor rapidly to a high degree.
The substances employed for the stability tests were prepared as follows:
crystalline (6S)-tetrahydrofolic acid as in Example 6 of the present patent application crystalline (6R)-tetrahydrofolic acid as in Example 9 of the present patent application “Yamanouchi's crystalline (6R,S)-tetrahydrofolic acid” as in DE-OS 2 323 124, Example 3
amorphous (6S)-tetrahydrofolic acid (6S)-tetrahydrofolic acid is dissolved in acetic acid and precipitated using diethyl ether
amorphous (6R)-tetrahydrofolic acid (6R)-tetrahydrofolic acid is dissolved in acetic acid and precipitated using diethyl ether
amorphous (6R,S)-tetrahydrofolic acid (6R,S)-tetrahydrofolic acid is dissolved in acetic acid and precipitated using diethyl ether.

[1] = 0 days (initial value), 60° C. in air

Row | SMILES | Remaining tetrahydrofolic acid content in comparison with the initial value [1] [%] | Remaining tetrahydrofolic acid content in comparison with the initial value (2 days at 60° C. in air) [%] | Remaining tetrahydrofolic acid content in comparison with the initial value (13 days at 60° C. in air) [%] | Remaining tetrahydrofolic acid content in comparison with the initial value (21 days at 60° C. in air) [%] | Remaining tetrahydrofolic acid content in comparison with the initial value (0 h) [%] | Remaining tetrahydrofolic acid content in comparison with the initial value (48 h) [%] | Remaining tetrahydrofolic acid content in comparison with the initial value (144 h) [%] | Remaining tetrahydrofolic acid content in comparison with the initial value (312 h) [%] | Remaining tetrahydrofolic acid content in comparison with the initial value (504 h) [%] | Remaining tetrahydrofolic acid content in comparison with the initial value (1368 h) [%] | Colour / discoloration | Remaining tetrahydrofolic acid content in comparison with the initial value (6 days at 60° C. in air) [%] | Remaining tetrahydrofolic acid content in comparison with the initial value (28 days at 60° C. in air) [%] | Remaining tetrahydrofolic acid content in comparison with the initial value (57 days at 60° C. in air) [%] | Remaining tetrahydrofolic acid content in comparison with the initial value (360 days at 60° C. in air) [%]
1 | Nc1nc2c(c(=O)[nH]1)N[C@@H](CNc1ccc(C(=O)N[C@@H](CCC(=O)O)C(=O)O)cc1)CN2 [Amorphous (6S)-tetrahydrofolic acid, (6S)-tetrahydrofolic acid] | 100.0 | 60.4 | 13.7 | 7.9 | – | – | – | – | – | – | – | – | – | – | –
2 | Nc1nc(=O)c2c([nH]1)NC[C@@H](CNc1ccc(C(=O)N[C@@H](CCC(=O)O)C(=O)O)cc1)N2 [Crystalline (6R)-tetrahydrofolic acid, N-[4-[[(2-amino-1,4,5,6,7,8-hexahydro-4-oxo-(6R)-pteridinyl)methyl]amino]benzoyl]-Lglutamic acid] | – | – | – | – | 100.0 | 96.4 | 96.1 | 93.3 | 92.7 | 82.0 | remain very pale, almost white | – | – | – | –
3 | Nc1nc2c(c(=O)[nH]1)N[C@@H](CNc1ccc(C(=O)N[C@@H](CCC(=O)O)C(=O)O)cc1)CN2 [Crystalline (6S)-tetrahydrofolic acid, (6S)-tetrahydrofolic acid] | 100.0 | 100.1 | 98.7 | 103.6 | – | – | – | – | – | – | remain very pale, almost white | 102.5 | 103.1 | 101.2 | 93.3
4 | Nc1nc2c(c(=O)[nH]1)N[C@H](CNc1ccc(C(=O)N[C@@H](CCC(=O)O)C(=O)O)cc1)CN2 [Yamanouchi's crystalline (6R,S)-tetrahydrofolic acid] | 100.0 | 83.6 | 48.6 | 31.0 | – | – | – | – | – | – | – | – | – | 13.4 | –
5 | Nc1nc2c(c(=O)[nH]1)N[C@H](CNc1ccc(C(=O)N[C@@H](CCC(=O)O)C(=O)O)cc1)CN2 [amorphous (6R)-tetrahydrofolic acid, (6R)-tetrahydrofolic acid] | 100.0 | 70.5 | 29.1 | 21.6 | – | – | – | – | – | – | – | – | – | 9.8 | –
6 | Nc1nc2c(c(=O)[nH]1)N[C@H](CNc1ccc(C(=O)N[C@@H](CCC(=O)O)C(=O)O)cc1)CN2 (mixture of isomers) [amorphous (6R,S)-tetrahydrofolic acid, (6R,S)-tetrahydrofolic acid] | 100.0 | 53.4 | 17.4 | 13.2 | – | – | – | – | – | – | – | – | – | – | –
